Assay [1] concerns the target T1, NAD-dependent protein deacylase sirtuin-5, mitochondrial (Homo sapiens, UniProt Q9NXA8). As to the kind of experiment: Inhibition of human N-terminal His-tagged SIRT5 (34 to 302 residues) expressed in Escherichia coli using Ac-Tyr-Lys-Leu-Lys(Ac)-AMC as substrate preincubated for 10 mins followed by substrate addition and measured after 30 mins in presence of NAD+ by fluorescence assay.

Assay [2] deals with T1, NAD-dependent protein deacylase sirtuin-5, mitochondrial. As to the kind of experiment: Inhibition of human N-terminal His-tagged SIRT5 (34 to 302 residues) expressed in Escherichia coli using Ac-Leu-Gly-Ser-Lys(Su)-AMC as substrate preincubated for 10 mins followed by substrate addition and measured after 30 mins in presence of NAD+ by fluorescence assay.
The target in assay [3] is T2, NAD-dependent protein deacetylase sirtuin-2 (Homo sapiens, UniProt Q8IXJ6).
T2 sequence (Q8IXJ6 whole entry): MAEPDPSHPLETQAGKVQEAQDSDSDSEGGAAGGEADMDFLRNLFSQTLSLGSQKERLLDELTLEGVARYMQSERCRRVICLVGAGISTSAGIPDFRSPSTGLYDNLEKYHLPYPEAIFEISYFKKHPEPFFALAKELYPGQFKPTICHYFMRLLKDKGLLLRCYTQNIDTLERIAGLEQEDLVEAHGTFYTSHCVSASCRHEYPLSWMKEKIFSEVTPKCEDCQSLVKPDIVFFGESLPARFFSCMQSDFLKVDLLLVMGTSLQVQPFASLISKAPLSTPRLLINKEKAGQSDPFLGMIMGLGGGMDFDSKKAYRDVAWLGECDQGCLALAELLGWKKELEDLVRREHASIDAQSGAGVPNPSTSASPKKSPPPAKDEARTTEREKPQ
As to the kind of experiment: Inhibition of human N-terminal His-tagged SIRT2 (56 to 356 residues) expressed in Escherichia coli using Ac-Arg-Leu-Ile-Lys(Ac)-AMC as substrate preincubated for 10 mins followed by substrate addition and measured after 30 mins in presence of NAD+ by fluorescence assay.

Assay [4] addresses T2, NAD-dependent protein deacetylase sirtuin-2. As to the kind of experiment: Inhibition of human N-terminal His-tagged SIRT2 (56 to 356 residues) expressed in Escherichia coli using Ac-Ser-Ser-Ile-Lys(De)-AMC as substrate preincubated for 10 mins followed by substrate addition and measured after 30 mins in presence of NAD+ by fluorescence assay.
Assay [5] has as its target T1, NAD-dependent protein deacylase sirtuin-5, mitochondrial. As to the kind of experiment: Inhibition of human N-terminal His-tagged SIRT5 (34 to 302 residues) expressed in Escherichia coli using Ac-His-Phe-Ser-Lys(Su)-AMC as substrate preincubated for 10 mins followed by substrate addition and measured after 30 mins in presence of NAD+ by fluorescence assay.
In assay [6] the target is T3, NAD-dependent protein deacetylase sirtuin-1 (Homo sapiens, UniProt Q96EB6).
T3 sequence (Q96EB6 whole entry): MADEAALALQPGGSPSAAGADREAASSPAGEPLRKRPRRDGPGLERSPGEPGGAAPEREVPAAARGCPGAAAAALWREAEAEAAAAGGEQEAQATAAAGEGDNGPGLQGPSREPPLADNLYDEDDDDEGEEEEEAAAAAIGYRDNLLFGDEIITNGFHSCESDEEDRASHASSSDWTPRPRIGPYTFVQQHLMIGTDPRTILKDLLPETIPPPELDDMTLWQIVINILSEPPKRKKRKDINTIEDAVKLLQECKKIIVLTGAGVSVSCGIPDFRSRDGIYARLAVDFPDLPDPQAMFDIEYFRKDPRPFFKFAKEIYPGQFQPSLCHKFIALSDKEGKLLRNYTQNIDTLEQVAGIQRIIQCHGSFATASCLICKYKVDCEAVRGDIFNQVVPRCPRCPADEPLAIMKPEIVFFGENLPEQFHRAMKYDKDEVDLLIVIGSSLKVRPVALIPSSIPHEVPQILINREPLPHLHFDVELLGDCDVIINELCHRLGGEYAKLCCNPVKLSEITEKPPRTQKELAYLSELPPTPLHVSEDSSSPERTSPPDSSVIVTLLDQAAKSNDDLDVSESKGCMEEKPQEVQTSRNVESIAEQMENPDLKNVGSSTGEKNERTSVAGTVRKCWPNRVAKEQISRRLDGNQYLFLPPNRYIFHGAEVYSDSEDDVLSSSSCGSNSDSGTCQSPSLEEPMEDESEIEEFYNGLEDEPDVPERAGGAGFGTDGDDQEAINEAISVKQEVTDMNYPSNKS
As to the kind of experiment: Inhibition of human N-terminal His-tagged SIRT1 (183 to 664 residues) expressed in Escherichia coli using Ac-Arg-Leu-Ile-Lys(Ac)-AMC as substrate preincubated for 10 mins followed by substrate addition and measured after 30 mins in presence of NAD+ by fluorescence assay.

Assay [7] addresses T3, NAD-dependent protein deacetylase sirtuin-1. As to the kind of experiment: Inhibition of human N-terminal His-tagged SIRT1 (183 to 664 residues) expressed in Escherichia coli using Ac-Tyr-Lys-Leu-Lys(Ac)-AMC as substrate preincubated for 10 mins followed by substrate addition and measured after 30 mins in presence of NAD+ by fluorescence assay.

T1 sequence (Q9NXA8 whole entry, the tested form may be a part): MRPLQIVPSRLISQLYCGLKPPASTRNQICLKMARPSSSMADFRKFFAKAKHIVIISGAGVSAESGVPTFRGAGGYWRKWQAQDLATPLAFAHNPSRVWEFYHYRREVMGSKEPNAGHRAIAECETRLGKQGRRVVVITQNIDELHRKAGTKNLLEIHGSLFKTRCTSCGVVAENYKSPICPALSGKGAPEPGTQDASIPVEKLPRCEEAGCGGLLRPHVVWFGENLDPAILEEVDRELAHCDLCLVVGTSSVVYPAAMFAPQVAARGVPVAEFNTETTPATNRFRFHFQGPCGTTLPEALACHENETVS

For orientation: IC50 means the midpoint of a concentration-inhibition curve. As for `NC(=O)C1CCCc2c1[nH]c1ccc(Cl)cc21` (centres undefined), the IC50 in assay [1] and in assay [2] was > 200 µM throughout.

Take `Cc1ccc(C(=O)Nc2ccc(S(=O)(=O)O)c3cc(S(=O)(=O)O)cc(S(=O)(=O)O)c23)cc1NC(=O)c1cccc(NC(=O)Nc2cccc(C(=O)Nc3cc(C(=O)Nc4ccc(S(=O)(=O)O)c5cc(S(=O)(=O)O)cc(S(=O)(=O)O)c45)ccc3C)c2)c1` [SURAMIN]: the figures for the 50% inhibitory concentration (IC50) in assay [3] and in assay [4] were 2.2 µM and 23.3 µM, respectively.

As to `CC(C)c1ccccc1Cc1cc(C(=O)Nc2ccc(S(=O)(=O)c3ccccc3C(C)(C)C)cc2)c(O)c(O)c1O`, the IC50 in assay [5] came out at 6.6 µM; in assay [1], 21.9 µM; in assay [2], 6.1 µM.

With `c1cncc(-c2c[nH]nn2)c1`, the IC50 was determined as 261 µM in assay [6] and 146 µM in assay [7].

These data come from ChEMBL document CHEMBL4680222, “Sensitive fluorogenic substrates for sirtuin deacylase inhibitor discovery” (Eur J Med Chem, 2020).
